This experiment deals with NCI-N87 cell line. The experiment in a line: Killing activity on NCI-N87 before and after cathepsin B digestion. It counts as cell-based, human. Particulars: NCI-N87, 144 hours, read-out: IC50 (based on SN-38 equivalent). How it is done:
NCI-N87 cell line was selected as the experimental cell lines. After the sample was incubated in cathepsin B system (100 mM sodium acetate-acetic acid buffer, 4 mM dithiothreitol, pH 5.0) at 37° C. for 4 hours, the obtained sample was diluted with culture medium to different concentrations. 8 concentrations (1.5 to 10-fold dilution) were set from 70 nM to 0.003 nM of SN-38 concentration. […] The IC50 value was calculated by reading the […] data after chemical luminescent staining with CellTiter-Glo® Luminescent Cell Viability Assay.

Where two headings read alike, the source gives them in different places.

Turning to `CCc1c2c(nc3ccc(O)cc13)-c1cc3c(c(=O)n1C2)COC(=O)[C@]3(O)CC` [SN-38, 7-ethyl-10-hydroxycamptothecin, reference compound], the IC50 runs as follows: (After Enzyme Digestion (cathepsin B, pH 5.0, 37° C., 4 hours)) 7.43 nM; (Before Enzyme Digestion) 7.18 nM.

These data come from patent publication US20250057970A1, “TROP2 TARGETING ANTIBODY-DRUG CONJUGATE, AND PREPARATION METHOD AND USE THEREFOR” (priority 2020, published 2025).
